ChEMBL document CHEMBL1201862, “PubChem BioAssay data set” (2004)
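Grown in 96-well plates, cells were treated for 48 hours with each compound at five concentrations. Insufficient inhibition: endpoint recorded as highest concentration tested. The concentration for 50% growth inhibition is given as GI50.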 Calls of active or inactive are those of the source. No stated cut-off is given here; in the data, active = GI50 up to about 1.1 µM and inactive = higher.

Columns and labels:
Assay in all cases: inhibition of tumour cell growth, NCI panel, 48 h
RPMI-8226 = test system: RPMI-8226
ACHN = test system: ACHN
SN12C = test system: SN12C
HOP-92 = test system: HOP-92
UACC-62 = test system: UACC-62
LXFL 529 = test system: LXFL 529
DMS-114 = test system: DMS-114
SK-OV-3 = test system: SK-OV-3
SNB-75 = test system: SNB-75
MOLT-4 = test system: MOLT-4
CAKI-1 = test system: CAKI-1
M14 = test system: M14
HCC 2998 = test system: HCC 2998
OVCAR-4 = test system: OVCAR-4
EKVX = test system: EKVX
HCT-116 = test system: HCT-116
Malme-3M = test system: Malme-3M
KM12 = test system: KM12
NCI-H522 = test system: NCI-H522
M19-MEL = test system: M19-MEL
SF-268 = test system: SF-268
HL-60 = test system: HL-60
LOX IMVI = test system: LOX IMVI
K562 = test system: K562
SR = test system: SR
XF498 = test system: XF498
SK-MEL-2 = test system: SK-MEL-2
DMS-273 = test system: DMS-273
IGROV-1 = test system: IGROV-1
COLO 205 = test system: COLO 205
SW-620 = test system: SW-620
CCRF-CEM = test system: CCRF-CEM
HCT-15 = test system: HCT-15
HOP-62 = test system: HOP-62
OVCAR-3 = test system: OVCAR-3
A498 = test system: A498
SF-539 = test system: SF-539
SK-MEL-28 = test system: SK-MEL-28
NCI-H23 = test system: NCI-H23
NCI-H226 = test system: NCI-H226
NCI-H460 = test system: NCI-H460
SNB-78 = test system: SNB-78
DLD-1 = test system: DLD-1
786-0 = test system: 786-0
UO-31 = test system: UO-31
SF-295 = test system: SF-295
OVCAR-8 = test system: OVCAR-8
TK-10 = test system: TK-10
SNB-19 = test system: SNB-19
SK-MEL-5 = test system: SK-MEL-5
HT-29 = test system: HT-29
KM-20L2 = test system: KM-20L2
RXF 393 = test system: RXF 393
A549 = test system: A549
OVCAR-5 = test system: OVCAR-5
UACC-257 = test system: UACC-257
U-251 = test system: U-251
MCF7 = test system: MCF7
DU-145 = test system: DU-145
T47D = test system: T47D
PC-3 = test system: PC-3
MDA-MB-435 = test system: MDA-MB-435
NCI/ADR-RES = test system: NCI/ADR-RES
MDA-N = test system: MDA-N
MDA-MB-231 = test system: MDA-MB-231
BT-549 = test system: BT-549
Hs-578T = test system: Hs-578T

Measured: GI50

O=c1n(CC2CS2)c2ccccc2n1CC1CS1 (stereo not drawn)
42.7 µM: HCT-15
inactive: RPMI-8226 27.2 µM | ACHN 45.7 µM | SN12C 87.7 µM | HOP-92 42.3 µM | UACC-62 33.3 µM | LXFL 529 31.2 µM | DMS-114 30.5 µM | SK-OV-3 > 100 µM | SNB-75 65.3 µM | MOLT-4 18.8 µM | CAKI-1 42.9 µM | M14 35.2 µM | HCC 2998 82.8 µM | OVCAR-4 41.7 µM | EKVX > 100 µM | HCT-116 25.1 µM | Malme-3M 18.2 µM | KM12 35.3 µM | NCI-H522 30.8 µM | M19-MEL 42.8 µM | SF-268 57.7 µM | HL-60 39.2 µM | LOX IMVI 30.2 µM | K562 33.8 µM | SR 45.5 µM | XF498 > 100 µM | SK-MEL-2 28.9 µM | DMS-273 31.9 µM | IGROV-1 39.2 µM | COLO 205 62.4 µM | SW-620 > 10 µM | CCRF-CEM 21 µM | HOP-62 39.5 µM | OVCAR-3 43.8 µM

CCOc1ccc(NC(=O)c2c(N/N=C/c3ccc(OC)cc3)nc(=O)[nH]c2C)cc1
> 100 µM: HCT-15
inactive: RPMI-8226 > 100 µM | A498 18.4 µM | ACHN 60 µM | SN12C 76 µM | HOP-92 46.2 µM | UACC-62 > 100 µM | LXFL 529 > 100 µM | SK-OV-3 33.6 µM | SNB-75 37.8 µM | MOLT-4 > 100 µM | SF-539 37 µM | CAKI-1 44.5 µM | SK-MEL-28 > 100 µM | M14 45.4 µM | HCC 2998 > 100 µM | OVCAR-4 34.7 µM | HCT-116 38.6 µM | Malme-3M 97.9 µM | NCI-H522 22.9 µM | M19-MEL 85.5 µM | SF-268 > 100 µM | HL-60 > 100 µM | NCI-H23 65.8 µM | K562 > 100 µM | SR > 100 µM | NCI-H226 41.6 µM | NCI-H460 56.4 µM | SNB-78 57.8 µM | DLD-1 63.5 µM | XF498 > 100 µM | 786-0 52.2 µM | SK-MEL-2 84.5 µM | UO-31 49.4 µM | DMS-273 33.7 µM | IGROV-1 51.5 µM | COLO 205 > 100 µM | CCRF-CEM > 100 µM | HOP-62 38.5 µM

CC(C)=CCOc1ccc(-c2coc3cc4c(c(O)c3c2=O)C=CC(C)(C)O4)cc1
21 µM: HCT-15
inactive: RPMI-8226 27.3 µM | A498 14.9 µM | ACHN > 100 µM | SF-295 49.5 µM | SN12C > 100 µM | OVCAR-8 50.7 µM | LXFL 529 20.9 µM | TK-10 > 100 µM | DMS-114 18.2 µM | SNB-19 56 µM | MOLT-4 > 100 µM | SK-MEL-28 91.4 µM | HCC 2998 83.6 µM | OVCAR-4 16.7 µM | EKVX 5.22 µM | HCT-116 6.9 µM | HT-29 > 100 µM | KM12 > 100 µM | M19-MEL 47.9 µM | SF-268 > 100 µM | HL-60 > 100 µM | KM-20L2 > 100 µM | NCI-H23 5.35 µM | LOX IMVI 1.7 µM | SR > 100 µM | RXF 393 > 100 µM | NCI-H226 > 100 µM | NCI-H460 63.2 µM | SNB-78 59.3 µM | DLD-1 50.7 µM | XF498 15.9 µM | 786-0 96.8 µM | UO-31 > 100 µM | A549 32.9 µM | IGROV-1 21.1 µM | OVCAR-5 > 100 µM | COLO 205 > 100 µM | SW-620 > 100 µM | CCRF-CEM 43.5 µM | HOP-62 > 100 µM | OVCAR-3 2.13 µM | UACC-257 14.3 µM | U-251 38.8 µM
active: SK-MEL-5 0.207 µM | NCI-H522 0.129 µM | K562 0.389 µM

COc1ccc(OC)c2c(=O)c3ccccc3[nH]c12
inactive: A498 69.3 µM | HOP-92 37.1 µM | UACC-62 43.6 µM | OVCAR-8 19.3 µM | TK-10 > 100 µM | DMS-114 66.8 µM | SK-OV-3 > 100 µM | SNB-19 96.6 µM | MOLT-4 47.9 µM | SK-MEL-28 > 100 µM | M14 74.8 µM | EKVX > 100 µM | HCT-116 44.2 µM | HT-29 45.6 µM | KM12 57.8 µM | NCI-H522 82.8 µM | M19-MEL > 100 µM | SF-268 54.3 µM | HL-60 48.3 µM | NCI-H23 41.7 µM | SR 41.1 µM | RXF 393 41.2 µM | NCI-H226 66.5 µM | NCI-H460 38.9 µM | SNB-78 49.7 µM | UO-31 30.9 µM | A549 47 µM | DMS-273 62.5 µM | IGROV-1 > 100 µM | OVCAR-5 70.1 µM | CCRF-CEM > 100 µM | HOP-62 > 100 µM | UACC-257 4.44 µM | U-251 54.1 µM

O=c1cc(/N=N\c2ccc(Cl)c(Cl)c2)[nH]c(=O)[nH]1
inactive: RPMI-8226 2.14 µM | A498 15.3 µM | ACHN 1.62 µM | MCF7 1.64 µM | SF-295 15.3 µM | SN12C 2.11 µM | HOP-92 1.59 µM | DU-145 2.94 µM | T47D 2.56 µM | UACC-62 2.01 µM | OVCAR-8 2.21 µM | TK-10 1.78 µM | SK-OV-3 15.8 µM | SNB-75 9.62 µM | PC-3 5.74 µM | SNB-19 12.1 µM | MOLT-4 1.97 µM | SF-539 2.61 µM | MDA-MB-435 6.55 µM | CAKI-1 2.07 µM | SK-MEL-5 4.89 µM | SK-MEL-28 1.73 µM | M14 1.93 µM | HCC 2998 2.45 µM | OVCAR-4 2.91 µM | EKVX 1.6 µM | HCT-116 1.75 µM | HT-29 1.73 µM | NCI/ADR-RES 1.85 µM | Malme-3M 2.23 µM | KM12 2.26 µM | MDA-N 1.8 µM | SF-268 2.88 µM | NCI-H23 3.89 µM | LOX IMVI 1.76 µM | MDA-MB-231 1.85 µM | RXF 393 1.77 µM | NCI-H226 15.1 µM | NCI-H460 2.47 µM | 786-0 1.51 µM | SK-MEL-2 5.2 µM | UO-31 2.07 µM | A549 15.3 µM | IGROV-1 1.57 µM | OVCAR-5 4.85 µM | COLO 205 1.81 µM | SW-620 1.86 µM | HOP-62 6.43 µM | OVCAR-3 2.36 µM | UACC-257 2.38 µM | U-251 1.87 µM | BT-549 2.21 µM | Hs-578T 2.57 µM
1.72 µM: HCT-15
active: NCI-H522 1.07 µM | HL-60 0.292 µM | K562 0.977 µM | SR 0.337 µM | CCRF-CEM 0.033 µM

CCC(C)N1CN(c2ccccc2)C2(CCN(CCCC3(c4ccc(F)cc4)OCCO3)CC2)C1=O (stereo not drawn)
4.75 µM: HCT-15
inactive: RPMI-8226 1.89 µM | A498 22.2 µM | ACHN 6.61 µM | MCF7 3.3 µM | SF-295 5.57 µM | SN12C 7.24 µM | DU-145 17.6 µM | T47D 8.28 µM | UACC-62 23.3 µM | OVCAR-8 7.64 µM | TK-10 7.5 µM | SK-OV-3 21 µM | SNB-75 6.05 µM | PC-3 6.05 µM | SNB-19 12.4 µM | MOLT-4 2.61 µM | SF-539 5.5 µM | MDA-MB-435 18.8 µM | CAKI-1 > 52 µM | SK-MEL-5 3.88 µM | SK-MEL-28 17.6 µM | M14 5.97 µM | HCC 2998 12.9 µM | OVCAR-4 22.6 µM | EKVX 6.14 µM | HCT-116 11.9 µM | HT-29 2.87 µM | NCI/ADR-RES 13.3 µM | Malme-3M 5.19 µM | KM12 20.6 µM | MDA-N 7.14 µM | NCI-H522 5.11 µM | SF-268 17.7 µM | HL-60 6.47 µM | NCI-H23 3.34 µM | LOX IMVI 7.73 µM | K562 8.24 µM | SR 6.34 µM | MDA-MB-231 13.4 µM | RXF 393 13 µM | NCI-H226 16.7 µM | NCI-H460 14.8 µM | 786-0 5.53 µM | SK-MEL-2 11.9 µM | UO-31 5.09 µM | A549 7.73 µM | IGROV-1 16.5 µM | OVCAR-5 8.61 µM | COLO 205 3.75 µM | SW-620 11.6 µM | CCRF-CEM 3.6 µM | HOP-62 13.2 µM | OVCAR-3 14.7 µM | UACC-257 1.98 µM | U-251 5.86 µM | BT-549 2 µM | Hs-578T 6.15 µM
active: HOP-92 < 0.01 µM
